Earlier results on five molecules are cited in US20240024221A1, “COMPOSITION FOR BRIGHTENING AND/OR WHITENING KERATIN MATERIALS” (L'OREAL, priority 2020, published 2024).

The conditions of this data set: 25° C.; raw material table.

SODIUM DILAURAMIDOGLUTAMIDE LYSINE: the HLB is on record as 12.6. As to `CCCCCCCCCCC(CCCCCCCC)CO[C@@H]1OC[C@@H](O)[C@H](O)[C@H]1O` (some centres unmarked) [OCTYLDODECYL XYLOSIDE], the HLB is 7.3. With POLYGLYCERYL-2 OLEATE, the HLB is listed as 8. On to POLYSORBATE 20, for which the HLB was 18.6. `CCCCCCCCCCCC[N+](C)(C)CC(=O)[O-]` [LAURYL BETAINE]: the HLB is listed as 15.
